Experimental data reported in the supplement of paper PMC8671470.
± gives the standard deviation of the averaged measurements.

What was measured:
Conditions in all cases: 72 h
HL-60 [1] = assay: area under dose-response curve (viability, 1 nM-10 uM) (fraction (0-1)); higher = more sensitive
Method in brief: (§1)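 HL-60 cells grown in RPMI 1640 with 10% FBS were rescreened against the full library in 384-well plates, in duplicate, at five tenfold concentrations from 1 to 10,000 nM, alongside DMSO or 100 nM of one of three metabolic inhibitors for 72 h at 37 °C, 5% CO2. Reference wells contained DMSO or 10 μM proteasome inhibitor. Viability was read with CellTiter-Glo and normalised to these reference wells, and where reported, area under the curve was taken from four-parameter log-logistic fits in drc and PharmacoGx.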

HL-60 [2] = assay: cell viability (% survival relative to DMSO control); higher = less cytotoxic
Method in brief: as §1

[3] = system: myeloid leukemia patient primary cells Pat.3; assay: cell viability (% survival relative to DMSO control); higher = less cytotoxic
Method in brief: (§2)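 Mononuclear cells from patients with AML or CML were thawed, purified on Ficoll and placed in RPMI 1640 with 10% FBS at 10,000 cells/well on 384-well plates. The plates came pre-printed with 70 compounds at five tenfold concentrations spanning 1–10,000 nM, in duplicate, and cells were exposed for 72 h. CellTiter-Glo gave viability, scaled between DMSO wells and wells with 10 μM proteasome inhibitor. Where reported, area under the curve was obtained from log-logistic fits with four parameters using the drc and PharmacoGx R packages.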

[4] = system: myeloid leukemia patient primary cells Pat.4; assay: as above
Method in brief: as §2

[5] = system: myeloid leukemia patient primary cells Pat.11; assay: as above
Method in brief: as §2

[6] = system: myeloid leukemia patient primary cells Pat.15; assay: as above
Method in brief: as §2

[7] = system: myeloid leukemia patient primary cells Pat.9; assay: as above
Method in brief: as §2

[8] = system: myeloid leukemia patient primary cells Pat.10; assay: as above
Method in brief: as §2

[9] = system: myeloid leukemia patient primary cells Pat.1; assay: as above
Method in brief: as §2

[10] = system: myeloid leukemia patient primary cells Pat.2; assay: as above
Method in brief: as §2

[11] = system: myeloid leukemia patient primary cells Pat.12; assay: as above
Method in brief: as §2

[12] = system: myeloid leukemia patient primary cells Pat.6; assay: as above
Method in brief: as §2

[13] = system: myeloid leukemia patient primary cells Pat.14; assay: as above
Method in brief: as §2

[14] = system: myeloid leukemia patient primary cells Pat.7; assay: as above
Method in brief: as §2

[15] = system: myeloid leukemia patient primary cells Pat.5; assay: as above
Method in brief: as §2

[16] = system: myeloid leukemia patient primary cells Pat.13; assay: as above
Method in brief: as §2

[17] = system: myeloid leukemia patient primary cells Pat.8; assay: as above
Method in brief: as §2

CCCCCCCCCCCCC/C=C/[C@@H](O)[C@H](CO)N(C)C [N,N-Dimethylsphingosine]
area under dose-response curve (HL-60 [1]; co-treatment: AZD3965 100 nM): 0.132
area under dose-response curve (HL-60 [1]; co-treatment: DMSO vehicle): 0.132
area under dose-response curve (HL-60 [1]; co-treatment: GSK2194069 100 nM): < 0.0301
area under dose-response curve (HL-60 [1]; co-treatment: pictilisib 100 nM): 0.0441
cell viability (HL-60 [2]; 0.001 µM, co-treatment: AZD3965 100 nM): 95.3 ± 2.7%
cell viability (HL-60 [2]; 0.001 µM, co-treatment: DMSO vehicle): 98.6 ± 0.98%
cell viability (HL-60 [2]; 0.001 µM, co-treatment: GSK2194069 100 nM): 90.2 ± 1.8%
cell viability (HL-60 [2]; 0.001 µM, co-treatment: pictilisib 100 nM): 87.6 ± 2.9%
cell viability (HL-60 [2]; 0.01 µM, co-treatment: AZD3965 100 nM): 103 ± 7.5%
cell viability (HL-60 [2]; 0.01 µM, co-treatment: DMSO vehicle): 98.5 ± 4%
cell viability (HL-60 [2]; 0.01 µM, co-treatment: GSK2194069 100 nM): 98.3 ± 5.2%
cell viability (HL-60 [2]; 0.01 µM, co-treatment: pictilisib 100 nM): 112 ± 13%
cell viability (HL-60 [2]; 0.1 µM, co-treatment: AZD3965 100 nM): 100 ± 2.3%
cell viability (HL-60 [2]; 0.1 µM, co-treatment: DMSO vehicle): 102 ± 6.8%
cell viability (HL-60 [2]; 0.1 µM, co-treatment: GSK2194069 100 nM): 103 ± 6%
cell viability (HL-60 [2]; 0.1 µM, co-treatment: pictilisib 100 nM): 106 ± 3.5%
cell viability (HL-60 [2]; 1 µM, co-treatment: AZD3965 100 nM): 100.26 ± 0.045%
cell viability (HL-60 [2]; 1 µM, co-treatment: DMSO vehicle): 97.42 ± 0.24%
cell viability (HL-60 [2]; 1 µM, co-treatment: GSK2194069 100 nM): 97.23 ± 0.41%
cell viability (HL-60 [2]; 1 µM, co-treatment: pictilisib 100 nM): 96.1 ± 2.2%
cell viability (HL-60 [2]; 10 µM, co-treatment: AZD3965 100 nM): -1.76 ± 1.1%
cell viability (HL-60 [2]; 10 µM, co-treatment: DMSO vehicle): 54.1 ± 66%
cell viability (HL-60 [2]; 10 µM, co-treatment: GSK2194069 100 nM): 86.6 ± 7.7%
cell viability (HL-60 [2]; 10 µM, co-treatment: pictilisib 100 nM): 62.7 ± 10%
cell viability ([3]; 1 nM): 57.4%
cell viability ([3]; 10 nM): 87.2%
cell viability ([3]; 100 nM): 60%
cell viability ([3]; 1000 nM): 17.4%
cell viability ([3]; 10000 nM): 0.177%
cell viability ([4]; 1 nM): 98.5%
cell viability ([4]; 10 nM): 80.5%
cell viability ([4]; 100 nM): 78.5%
cell viability ([4]; 1000 nM): 74%
cell viability ([4]; 10000 nM): 5.51%
cell viability ([5]; 1 nM): 94.6%
cell viability ([5]; 10 nM): > 100%
cell viability ([5]; 100 nM): 94.1%
cell viability ([5]; 1000 nM): 93.3%
cell viability ([5]; 10000 nM): 19.4%
cell viability ([6]; 1 nM): 93.8%
cell viability ([6]; 10 nM): 95.6%
cell viability ([6]; 100 nM): 78.6%
cell viability ([6]; 1000 nM): 85.5%
cell viability ([6]; 10000 nM): 10.4%
cell viability ([7]; 1 nM): 68.4%
cell viability ([7]; 10 nM): 77.7%
cell viability ([7]; 100 nM): 25.2%
cell viability ([7]; 1000 nM): 21.6%
cell viability ([7]; 10000 nM): < 0%
cell viability ([8]; 1 nM): 79.3%
cell viability ([8]; 10 nM): 74.6%
cell viability ([8]; 100 nM): 39.9%
cell viability ([8]; 1000 nM): 22.9%
cell viability ([8]; 10000 nM): < 0%
cell viability ([9]; 1 nM): > 100%
cell viability ([9]; 10 nM): 92.6%
cell viability ([9]; 100 nM): 79.6%
cell viability ([9]; 1000 nM): 74.3%
cell viability ([9]; 10000 nM): 56.2%
cell viability ([10]; 1 nM): 91.4%
cell viability ([10]; 10 nM): 96.1%
cell viability ([10]; 100 nM): 88.2%
cell viability ([10]; 1000 nM): 92.4%
cell viability ([10]; 10000 nM): 3.22%
cell viability ([11]; 1 nM): 100%
cell viability ([11]; 10 nM): 84.6%
cell viability ([11]; 100 nM): 94.2%
cell viability ([11]; 1000 nM): 84.6%
cell viability ([11]; 10000 nM): 42.2%
cell viability ([12]; 1 nM): > 100%
cell viability ([12]; 10 nM): 99.3%
cell viability ([12]; 100 nM): 76.5%
cell viability ([12]; 1000 nM): 83.7%
cell viability ([12]; 10000 nM): 0.544%
cell viability ([13]; 1 nM): 97.9%
cell viability ([13]; 10 nM): 85%
cell viability ([13]; 100 nM): 57.8%
cell viability ([13]; 1000 nM): 47.9%
cell viability ([13]; 10000 nM): 2.81%
cell viability ([14]; 1 nM): 90.6%
cell viability ([14]; 10 nM): 65.6%
cell viability ([14]; 100 nM): 86.3%
cell viability ([14]; 1000 nM): 11.6%
cell viability ([14]; 10000 nM): < 0%
cell viability ([15]; 1 nM): 75.5%
cell viability ([15]; 10 nM): 57.6%
cell viability ([15]; 100 nM): 10.1%
cell viability ([15]; 1000 nM): 2.01%
cell viability ([15]; 10000 nM): 0.265%
cell viability ([16]; 1 nM): 94.6%
cell viability ([16]; 10 nM): 86.2%
cell viability ([16]; 100 nM): 71.2%
cell viability ([16]; 1000 nM): 85.7%
cell viability ([16]; 10000 nM): 0.263%
cell viability ([17]; 1 nM): 71.9%
cell viability ([17]; 10 nM): 86.8%
cell viability ([17]; 100 nM): 69%
cell viability ([17]; 1000 nM): 92.9%
cell viability ([17]; 10000 nM): 0.0301%
